The results in this text go back to patent US20230321083A1, “Inhibitors of GPR174 and Uses Thereof” (Omeros Corporation, priority 2016, published 2023).

Molecules are shown by their SMILES.

Holding throughout (assay type): cell-based
For one test, the target named is T1, ADBR2 (Homo sapiens, UniProt P07550).
T1 construct: host or cells: HEK293 or CHO cell lines (ATCC)
In words: CRE-Luc reporter Gs signaling assay, control receptor ADBR2. Here is the method: (§1) Compounds were tested in the reporter system with increasing concentrations of GPR174-interacting compounds. GPR174 construct pCMV6-XL4-GPR174 or ADBR2, reporter of interest, pCRE-Luc or GL4.29 (3000 ng), and TK-renilla as an internal control (10 ng) with lipofectamine 2000 (60 ug) (Invitrogen, CA) according to the manufacturer's directions.
(§2) The DNA/lipofectamine 2000 mix (3000 μL) was incubated at room temperature for 30 minutes and then added into a 10 cm culture dish (Corning, NY) containing 70-90% confluent cultured cells, typically HEK293 or CHO cell lines (ATCC, VA), in 15 mL of media. The cells were further incubated for 4-6 hours at 37° C. and then media were removed and cells were detached with 2 mL trypsin (Life Technologies, CA). Media (26 mL) were added to the detached cells and 120 μL of transfected cells were transferred to each well on a 96-well plate. Increasing concentration of each compound in DMSO (1.2 μl) was added to the cells after plating into the 96-well plate. The cells were further incubated at 37° C. for various times. The media were removed and the cells lysed. Luciferase and renilla activities were measured with the Dual-luciferase assay system (Promega, WI) according to the manufacturer's directions. Typically, lysis buffer (25 μL) was added to the cells and incubated at room temperature for 20-30 minutes to allow for the cells to lyse. The lysate (10 μL) was measured for luciferase and renilla activity with LARII and Stop&Glo reagent (50 μL each) with a SpectraMax L (Molecular Devices, CA). Data were analyzed with either Excel (Microsoft, WA) or Prism 4.03 (GraphPad, CA).
(§3) ADBR2 is a GPCR, like GPR174, that activates the Gs signaling pathway.

In test [1] the test system is human PBMCs. In words: Treg (FoxP3/Helios) flow cytometry in anti-CD3/anti-CD28 stimulated human PBMCs. Here is the method:
(§4) A fraction of the cells was taken for staining on day 3 post-stimulation, while the rest of the cells were split 1:4 with fresh medium and used for staining on day 7 post-stimulation. To determine the fraction of natural Treg (nTreg) cells (FoxP3^+Helios^+), PBMCs were washed, stained with fluorescently labeled anti-CD4 antibodies, fixed, permeabilized and stained with a mixture of fluorescent anti-FoxP3 and anti-Helios antibodies. Labeled cells were analyzed by flow cytometry for populations stained for these three markers. Each experiment was performed in triplicate and was repeated five times.
as §4, with “three” for “five”
as §4, with “day 2” for “day 3”, “(FoxP3^+Helios^+), PBMC” for “(FoxP3^+Helios^+), PBMCs”
In general terms: A flow cytometer gives signals particle by particle.

Test [2] relates to human PBMCs. In words: Cytokines in culture supernatants of stimulated human PBMCs (ELISA / LEGENDplex). As for the experimental part: The effect of compound #10 on IL-2 and IFN-γ production in human PBMCs was determined as follows. PBMCs from a single donor were adjusted to a density of 2×10^6 cells/mL, stimulated with 100 ng/mL of anti-CD3 and 100 ng/mL of anti-CD28 antibodies and treated with 1 μM, 3 μM, or 10 μM of compound #10. Supernatant from these cells was taken on day 2 post-stimulation and the levels of IL-2 and IFN-γ were determined by ELISA assay using Ready-SET-Go ELISA kits from Affimetrix Ebioscience according to the manufacturer's instructions.
The effect of compound #10 on IL-2 production in human PBMCs was determined as follows. […] Supernatant from these cells was taken on day 3 post-stimulation and the levels of IL-2 were determined by ELISA assay using Ready-SET-Go™ ELISA kits from Affimetrix Ebioscience and LEGENDplex™ bead-based immunoassays from BioLegend according to the manufacturer's instructions.
The effect of compound #10 on IL-2 production in human PBMC from each donor was determined as follows. PBMC from each donor were adjusted to a density of 2×10^6 cells/mL, stimulated with 100 ng/mL of anti-CD3 and 100 ng/mL of anti-CD28 antibodies and treated with 30 μM compound #10. Supernatant from these cells was taken on day 2 post-stimulation and the levels of IL-2 were determined by ELISA assay using LEGENDplex™ bead-based immunoassays from BioLegend (San Diego, CA) according to the manufacturer's instructions.
The effect of compound #10 on the production of a panel of additional cytokines (interleukin 5 (IL-5), interleukin 13 (IL-13), interleukin 6 (IL-6), interleukin 9 (IL-9), interleukin 10 (IL-10), interferon gamma (IFN-γ), tumor necrosis factor alpha (TNF-α), interleukine 17A (IL-17A), interleukin 17F (IL-17F), interleukin 4 (IL-4) and interleukin 22 (IL-22)) in pooled human PBMC obtained from eight donors was determined as follows. PBMC from eight donors were pooled, then adjusted to a density of 2×10^6 cells/mL, stimulated with 100 ng/mL of anti-CD3 and 100 ng/mL of anti-CD28 antibodies and treated with 30 μM compound #10. Supernatant from these cells was taken on day 2 post-stimulation and the levels of IL-5, IL-13, IL-6, IL-9, IL-10, IFN-γ, TNF-α, IL-17A, IL-17F, IL-4 and IL-22 were determined by ELISA using LEGENDplex™ bead-based immunoassays from BioLegend (San Diego, CA) according to the manufacturer's instructions.

For another test, the target named is GPR174 (Homo sapiens, UniProt Q9BXC1). In words: CRE-Luc reporter Gs signaling assay, cells transfected with GPR174. Also noted: host or cells: HEK293 or CHO cell lines (ATCC). To be noted: CRE-Luc reporter. Here is the method:
as §1, §2, §3

Where [3] appears, read: day 2, 30 μM, PBMC from eight donors, p<0.001.
Where [4] appears, read: day 2, 30 μM, PBMC from eight donors, p<0.05.

GPR174, sequence (Q9BXC1 whole entry): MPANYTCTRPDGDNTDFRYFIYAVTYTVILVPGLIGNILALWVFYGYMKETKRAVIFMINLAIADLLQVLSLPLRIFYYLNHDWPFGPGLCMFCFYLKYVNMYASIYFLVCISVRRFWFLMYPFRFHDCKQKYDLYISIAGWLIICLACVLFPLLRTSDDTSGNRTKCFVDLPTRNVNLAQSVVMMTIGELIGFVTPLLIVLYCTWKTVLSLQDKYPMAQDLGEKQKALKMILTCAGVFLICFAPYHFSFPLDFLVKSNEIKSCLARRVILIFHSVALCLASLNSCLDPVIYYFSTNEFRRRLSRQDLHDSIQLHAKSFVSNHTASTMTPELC
T1 sequence (P07550 whole entry): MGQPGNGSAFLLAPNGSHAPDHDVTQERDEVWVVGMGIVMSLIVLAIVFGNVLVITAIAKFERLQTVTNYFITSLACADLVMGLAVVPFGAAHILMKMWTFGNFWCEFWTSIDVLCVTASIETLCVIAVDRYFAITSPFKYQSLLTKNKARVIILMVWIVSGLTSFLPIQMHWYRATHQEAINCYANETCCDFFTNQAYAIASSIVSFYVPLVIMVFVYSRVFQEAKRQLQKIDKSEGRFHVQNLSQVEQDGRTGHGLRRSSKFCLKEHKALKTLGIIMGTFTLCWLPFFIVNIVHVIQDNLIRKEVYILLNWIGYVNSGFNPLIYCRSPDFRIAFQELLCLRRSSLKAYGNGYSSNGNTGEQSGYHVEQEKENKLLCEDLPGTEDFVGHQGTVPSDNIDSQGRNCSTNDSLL

In the case of `CC1CCN(c2cc(N3CCN(S(=O)(=O)c4ccccc4)CC3)c([N+](=O)[O-])cc2F)CC1` [Compound 10], the “effect on Gs pathway in the presence of ADBR2” value at ADBR2 is listed as “did not inhibit the Gs pathway”. Moreover, in the test with human PBMCs [1] (day 3 post-stimulation, 100 μM, p=0.03 vs vehicle), the “fraction of FoxP3+Helios− cells in CD4+ population” value is given as “significantly increased”. In the test on human PBMCs [1] (day 7, 30 μM, PBMC from eight donors), the “abundance of FoxP3+Helios+ nTreg cells (fraction of vehicle)” value is on record as “significantly reduced”. Further, in the test with human PBMCs [1] (day 7, 3, 10, 30 μM, single donor, dose-dependent), the “abundance of FoxP3+Helios+ nTreg cells in CD4+ population” value is recorded as “significantly reduced”. Further, the “abundance of FoxP3+Helios+ nTreg cells in CD4+ population” value in the test on human PBMCs [1] (day 7 post-stimulation, 100 μM, p=0.01 vs vehicle) was “significantly reduced”. In the test on human PBMCs [2] (setting [3]), the “IL-6 in culture supernatants (fold over vehicle)” value is given as “statistically significant fold increase” and the “IL-17A in culture supernatants (fold over vehicle)” value is given as “statistically significant fold decrease”. Further, in the test with human PBMCs [2] (setting [4]), the “IFN-γ in culture supernatants (fold over vehicle)” value is reported as “statistically significant fold increase”, the “IL-10 in culture supernatants (fold over vehicle)” value is “statistically significant fold increase” and the “TNF-α in culture supernatants (fold over vehicle)” value is on record as “statistically significant fold increase”. In addition, in the test with human PBMCs [2] (day 3 post-stimulation, 3, 10, 30, 60 μM, single donor), the “IL-2 (pg/mL) in culture supernatants” value was “increased IL-2 levels in culture supernatants in a dose-dependent manner”. Further, on GPR174, the “effect on Gs pathway in the presence of GPR174” value is “inhibited the Gs pathway”.
